This note sets out measurements from ChEMBL document CHEMBL5291721, “A preclinical secondary pharmacology resource illuminates target-adverse drug reaction associations of marketed drugs” (Nat Commun, 2023).

A value given as a limit tells only on which side of the number the result lay.

The target in experiment [1] is T1, Alpha-2C adrenergic receptor (Homo sapiens, UniProt P18825).
T1 sequence (P18825 whole entry): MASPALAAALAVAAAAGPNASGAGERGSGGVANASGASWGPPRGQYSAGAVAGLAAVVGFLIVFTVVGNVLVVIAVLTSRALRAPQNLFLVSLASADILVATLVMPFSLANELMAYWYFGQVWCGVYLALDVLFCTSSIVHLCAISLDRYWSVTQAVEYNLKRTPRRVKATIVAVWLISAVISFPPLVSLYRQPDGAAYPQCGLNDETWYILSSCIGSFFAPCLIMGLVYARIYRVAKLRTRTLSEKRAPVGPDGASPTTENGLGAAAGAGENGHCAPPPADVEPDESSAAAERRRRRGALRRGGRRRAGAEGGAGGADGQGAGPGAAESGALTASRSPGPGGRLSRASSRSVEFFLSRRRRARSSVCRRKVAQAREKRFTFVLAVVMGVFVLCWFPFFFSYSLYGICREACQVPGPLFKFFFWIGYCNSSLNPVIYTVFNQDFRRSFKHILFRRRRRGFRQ
It is filed as functional.

For experiment [2], the target named is T2, Type-1 angiotensin II receptor (Homo sapiens, UniProt P30556).
T2 sequence (P30556 whole entry): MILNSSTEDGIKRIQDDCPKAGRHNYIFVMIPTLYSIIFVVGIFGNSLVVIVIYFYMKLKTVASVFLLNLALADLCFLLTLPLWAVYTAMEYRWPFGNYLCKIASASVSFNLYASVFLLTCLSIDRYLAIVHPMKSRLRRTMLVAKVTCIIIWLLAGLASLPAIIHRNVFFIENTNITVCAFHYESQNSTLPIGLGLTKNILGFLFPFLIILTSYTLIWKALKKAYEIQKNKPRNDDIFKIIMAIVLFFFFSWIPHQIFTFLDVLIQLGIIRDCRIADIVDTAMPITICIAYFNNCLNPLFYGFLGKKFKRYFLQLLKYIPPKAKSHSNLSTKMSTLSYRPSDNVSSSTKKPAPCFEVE

Experiment [3] deals with Voltage-dependent L-type calcium channel subunit alpha-1C (Rattus norvegicus, UniProt P22002). The class given is functional.
Voltage-dependent L-type calcium channel subunit alpha-1C, sequence (P22002 whole entry): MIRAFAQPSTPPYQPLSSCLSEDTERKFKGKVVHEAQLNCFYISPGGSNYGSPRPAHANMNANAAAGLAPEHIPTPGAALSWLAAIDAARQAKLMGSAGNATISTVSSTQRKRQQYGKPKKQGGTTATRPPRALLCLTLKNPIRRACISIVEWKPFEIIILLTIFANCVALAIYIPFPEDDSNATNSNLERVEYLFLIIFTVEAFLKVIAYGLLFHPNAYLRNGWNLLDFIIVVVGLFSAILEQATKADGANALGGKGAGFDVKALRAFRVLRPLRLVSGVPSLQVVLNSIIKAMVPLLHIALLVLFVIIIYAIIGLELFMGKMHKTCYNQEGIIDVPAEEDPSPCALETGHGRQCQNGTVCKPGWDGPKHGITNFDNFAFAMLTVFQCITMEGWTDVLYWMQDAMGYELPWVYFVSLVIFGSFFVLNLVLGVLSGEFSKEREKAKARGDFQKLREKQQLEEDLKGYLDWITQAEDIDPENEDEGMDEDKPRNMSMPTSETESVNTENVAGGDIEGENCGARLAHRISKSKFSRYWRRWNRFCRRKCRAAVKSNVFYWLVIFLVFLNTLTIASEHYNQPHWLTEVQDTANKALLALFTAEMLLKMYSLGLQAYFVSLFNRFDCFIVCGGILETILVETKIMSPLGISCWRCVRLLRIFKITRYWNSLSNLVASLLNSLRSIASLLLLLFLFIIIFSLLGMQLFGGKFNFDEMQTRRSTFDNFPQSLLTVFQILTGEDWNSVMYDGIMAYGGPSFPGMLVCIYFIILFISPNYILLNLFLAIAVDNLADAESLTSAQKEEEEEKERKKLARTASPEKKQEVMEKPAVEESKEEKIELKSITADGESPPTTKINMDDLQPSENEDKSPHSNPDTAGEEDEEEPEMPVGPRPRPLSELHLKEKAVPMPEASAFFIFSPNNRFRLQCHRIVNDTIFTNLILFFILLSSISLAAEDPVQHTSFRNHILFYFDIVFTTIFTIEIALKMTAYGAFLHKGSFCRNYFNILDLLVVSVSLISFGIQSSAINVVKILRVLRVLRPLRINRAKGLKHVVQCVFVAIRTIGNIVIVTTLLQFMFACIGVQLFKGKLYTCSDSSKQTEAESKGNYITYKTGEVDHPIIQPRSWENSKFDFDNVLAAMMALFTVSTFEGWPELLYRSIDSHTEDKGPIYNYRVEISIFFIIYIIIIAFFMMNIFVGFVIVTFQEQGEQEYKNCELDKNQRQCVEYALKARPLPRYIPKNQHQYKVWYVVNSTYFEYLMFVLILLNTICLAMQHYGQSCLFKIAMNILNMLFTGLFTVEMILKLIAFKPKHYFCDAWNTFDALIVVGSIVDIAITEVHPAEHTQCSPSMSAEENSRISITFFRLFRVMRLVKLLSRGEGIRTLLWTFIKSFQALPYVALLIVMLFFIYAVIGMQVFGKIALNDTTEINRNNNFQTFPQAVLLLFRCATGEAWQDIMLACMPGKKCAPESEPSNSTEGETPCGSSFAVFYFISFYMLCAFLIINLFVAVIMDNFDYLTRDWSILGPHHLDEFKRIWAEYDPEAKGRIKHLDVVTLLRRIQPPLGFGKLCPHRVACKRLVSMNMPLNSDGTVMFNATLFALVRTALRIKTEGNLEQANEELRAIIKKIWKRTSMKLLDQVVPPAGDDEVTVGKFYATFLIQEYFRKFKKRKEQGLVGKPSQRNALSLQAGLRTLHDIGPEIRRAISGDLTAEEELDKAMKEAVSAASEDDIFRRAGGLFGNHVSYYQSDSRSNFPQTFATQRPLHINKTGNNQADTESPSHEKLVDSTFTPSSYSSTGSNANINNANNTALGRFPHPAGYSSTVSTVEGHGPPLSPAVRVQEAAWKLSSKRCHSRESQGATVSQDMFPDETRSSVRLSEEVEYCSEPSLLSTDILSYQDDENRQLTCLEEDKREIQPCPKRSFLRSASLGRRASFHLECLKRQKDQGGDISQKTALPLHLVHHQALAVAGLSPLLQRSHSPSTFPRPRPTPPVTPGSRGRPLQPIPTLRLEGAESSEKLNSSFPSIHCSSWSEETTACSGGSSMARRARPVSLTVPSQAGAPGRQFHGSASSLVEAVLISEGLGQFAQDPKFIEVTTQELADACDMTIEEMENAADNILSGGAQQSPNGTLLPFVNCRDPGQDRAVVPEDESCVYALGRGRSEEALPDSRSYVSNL
Experiment [4] addresses T3, Cholecystokinin receptor type A (Homo sapiens, UniProt P32238).
T3 sequence (P32238 whole entry): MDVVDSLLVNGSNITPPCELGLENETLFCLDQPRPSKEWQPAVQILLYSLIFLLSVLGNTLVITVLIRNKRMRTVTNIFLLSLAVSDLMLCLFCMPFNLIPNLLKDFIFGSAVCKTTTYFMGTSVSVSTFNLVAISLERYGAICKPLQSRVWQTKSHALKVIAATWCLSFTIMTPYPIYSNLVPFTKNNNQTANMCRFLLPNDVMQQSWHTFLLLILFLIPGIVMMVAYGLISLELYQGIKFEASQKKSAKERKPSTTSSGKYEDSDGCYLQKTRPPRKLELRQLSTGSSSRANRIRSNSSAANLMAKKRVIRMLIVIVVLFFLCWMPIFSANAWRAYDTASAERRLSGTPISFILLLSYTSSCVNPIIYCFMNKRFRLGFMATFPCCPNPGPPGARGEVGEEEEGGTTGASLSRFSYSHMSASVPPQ

A further experiment concerns the target D(1A) dopamine receptor (Homo sapiens, UniProt P21728). The class given is functional, cell-based.
The target in a further experiment is T4, Estrogen receptor (Homo sapiens, UniProt P03372).
T4 sequence (P03372 whole entry): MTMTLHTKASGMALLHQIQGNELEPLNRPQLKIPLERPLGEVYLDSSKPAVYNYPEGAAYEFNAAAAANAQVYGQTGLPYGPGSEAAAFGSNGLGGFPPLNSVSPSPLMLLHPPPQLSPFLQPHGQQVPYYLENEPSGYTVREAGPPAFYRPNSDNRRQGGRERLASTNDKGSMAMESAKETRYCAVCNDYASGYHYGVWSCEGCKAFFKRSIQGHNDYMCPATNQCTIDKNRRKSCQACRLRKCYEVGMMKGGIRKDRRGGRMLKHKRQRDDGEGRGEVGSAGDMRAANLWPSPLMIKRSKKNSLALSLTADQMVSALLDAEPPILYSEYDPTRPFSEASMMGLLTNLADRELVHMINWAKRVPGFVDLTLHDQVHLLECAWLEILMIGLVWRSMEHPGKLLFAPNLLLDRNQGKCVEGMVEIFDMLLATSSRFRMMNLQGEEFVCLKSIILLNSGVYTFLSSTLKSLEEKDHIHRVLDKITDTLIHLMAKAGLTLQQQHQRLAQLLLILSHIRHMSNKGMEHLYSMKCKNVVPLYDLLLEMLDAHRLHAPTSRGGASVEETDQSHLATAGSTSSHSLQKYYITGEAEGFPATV

The target in experiment [5] is T5, 5-hydroxytryptamine receptor 3A (Homo sapiens, UniProt P46098).
T5 sequence (P46098 whole entry): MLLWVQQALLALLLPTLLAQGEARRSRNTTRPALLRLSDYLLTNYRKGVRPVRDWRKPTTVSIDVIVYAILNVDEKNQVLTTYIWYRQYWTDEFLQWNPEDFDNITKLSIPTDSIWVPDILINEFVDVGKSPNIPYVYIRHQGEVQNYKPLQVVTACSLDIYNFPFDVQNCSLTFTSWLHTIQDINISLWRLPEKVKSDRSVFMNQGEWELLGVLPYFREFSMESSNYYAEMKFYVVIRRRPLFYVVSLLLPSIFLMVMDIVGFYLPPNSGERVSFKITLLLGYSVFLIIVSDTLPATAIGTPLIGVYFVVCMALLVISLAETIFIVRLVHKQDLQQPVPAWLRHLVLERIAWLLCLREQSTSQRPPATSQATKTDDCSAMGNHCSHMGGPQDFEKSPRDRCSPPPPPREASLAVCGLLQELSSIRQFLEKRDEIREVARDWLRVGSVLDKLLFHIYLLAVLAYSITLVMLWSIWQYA
It is filed as functional.

A further experiment addresses Mu-type opioid receptor (Homo sapiens, UniProt P35372).
The target in experiment [6] is T6, 5-hydroxytryptamine receptor 1A (Homo sapiens, UniProt P08908).
T6 sequence (P08908 whole entry): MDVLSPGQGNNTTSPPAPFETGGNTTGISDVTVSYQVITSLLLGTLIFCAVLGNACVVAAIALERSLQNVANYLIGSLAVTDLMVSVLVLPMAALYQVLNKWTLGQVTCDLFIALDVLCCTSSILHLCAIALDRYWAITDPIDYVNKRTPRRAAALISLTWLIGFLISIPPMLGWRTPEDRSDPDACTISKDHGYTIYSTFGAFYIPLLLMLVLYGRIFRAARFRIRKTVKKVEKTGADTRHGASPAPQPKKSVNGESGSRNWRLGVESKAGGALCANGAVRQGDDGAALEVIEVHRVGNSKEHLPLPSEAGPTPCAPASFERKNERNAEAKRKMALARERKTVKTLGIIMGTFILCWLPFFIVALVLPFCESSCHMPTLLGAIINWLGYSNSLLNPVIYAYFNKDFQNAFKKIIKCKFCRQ
It is filed as functional, cell-based.
Also: assay procedure not described here.

D(1A) dopamine receptor, sequence (P21728 whole entry): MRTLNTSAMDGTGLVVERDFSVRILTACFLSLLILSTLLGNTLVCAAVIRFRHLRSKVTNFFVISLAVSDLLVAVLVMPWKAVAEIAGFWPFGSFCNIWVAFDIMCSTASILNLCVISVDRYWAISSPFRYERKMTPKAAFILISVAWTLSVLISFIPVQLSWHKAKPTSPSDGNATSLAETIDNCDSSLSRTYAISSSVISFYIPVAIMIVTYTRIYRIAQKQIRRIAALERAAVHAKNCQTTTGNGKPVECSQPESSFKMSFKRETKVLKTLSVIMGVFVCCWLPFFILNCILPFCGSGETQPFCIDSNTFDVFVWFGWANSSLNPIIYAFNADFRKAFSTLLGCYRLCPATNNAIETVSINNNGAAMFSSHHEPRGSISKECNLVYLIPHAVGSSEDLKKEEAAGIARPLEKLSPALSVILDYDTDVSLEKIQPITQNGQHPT
Mu-type opioid receptor, sequence (P35372 whole entry): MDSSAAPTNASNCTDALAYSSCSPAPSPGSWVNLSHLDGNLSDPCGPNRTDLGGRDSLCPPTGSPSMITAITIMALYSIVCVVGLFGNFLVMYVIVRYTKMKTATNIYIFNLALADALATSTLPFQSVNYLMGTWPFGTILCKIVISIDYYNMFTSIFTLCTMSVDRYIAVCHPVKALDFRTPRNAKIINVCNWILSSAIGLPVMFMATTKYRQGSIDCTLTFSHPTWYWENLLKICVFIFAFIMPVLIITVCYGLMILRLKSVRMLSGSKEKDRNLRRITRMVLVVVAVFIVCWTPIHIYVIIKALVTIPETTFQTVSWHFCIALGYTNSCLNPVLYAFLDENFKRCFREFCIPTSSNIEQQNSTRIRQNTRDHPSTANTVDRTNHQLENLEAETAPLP

In the case of `CC(C)CN(C[C@@H](O)[C@H](Cc1ccccc1)NC(=O)O[C@H]1CCOC1)S(=O)(=O)c1ccc(N)cc1`, the AC50 was above 10 µM in [1]; above 10 µM in experiment [2]; above 10 µM in [3]; above 30 µM in experiment [4]; above 10 µM at D(1A) dopamine receptor; above 10 µM on Estrogen receptor. Besides, the AC50 (in experiment [5]; on Mu-type opioid receptor) was above 30 µM throughout.
In the case of `OCC(O)COc1ccc(Cl)cc1` (stereo not drawn), the half-maximal activity concentration (AC50) (in [1]; in [2]; in experiment [3]; in experiment [4]; on D(1A) dopamine receptor; at Estrogen receptor) was above 10 µM each time. The values for the AC50 (in experiment [6]; in experiment [5]; on Mu-type opioid receptor) were above 10 µM, above 30 µM and above 30 µM, respectively.
Regarding `O=C(O[C@H]1C[N+]2(CCCOc3ccccc3)CCC1CC2)C(O)(c1cccs1)c1cccs1` [ACLIDINIUM BROMIDE], the AC50 in experiment [1] was 2.5 µM; in [2], above 30 µM; in experiment [3], above 10 µM; in experiment [4], above 30 µM; on Estrogen receptor, above 30 µM; in [5], above 30 µM. Besides, the AC50 at Mu-type opioid receptor was above 30 µM.
For `Cc1nnc2n1-c1ccc(Cl)cc1C(c1ccccc1)=NC2` [ALPRAZOLAM], the AC50 was above 10 µM in experiment [1]; above 30 µM in experiment [2]; above 10 µM in experiment [3]; above 30 µM in [4]; above 10 µM at D(1A) dopamine receptor; above 30 µM at Estrogen receptor. The AC50 is above 10 µM in experiment [6], above 30 µM in experiment [5] and above 30 µM at Mu-type opioid receptor.
Consider `C[C@@H](Cc1ccccc1)N(C)Cc1ccccc1` [BENZPHETAMINE], for which the AC50 in experiment [1] is 0.68 µM; in [2], above 30 µM; in experiment [3] it was above 10 µM; in experiment [4], above 10 µM; on D(1A) dopamine receptor, above 10 µM; at Estrogen receptor it was above 10 µM. Besides, the AC50 (in [5]; on Mu-type opioid receptor) was above 30 µM in each case.
With `Cc1cnc(Nc2ccc(OCCN3CCCC3)cc2)nc1Nc1cccc(S(=O)(=O)NC(C)(C)C)c1` [FEDRATINIB], the AC50 in experiment [1] was 7.4 µM; in [2] it was above 30 µM; in experiment [3] it was above 10 µM; in experiment [4] it was above 30 µM; on D(1A) dopamine receptor, above 10 µM; at Estrogen receptor, above 30 µM. In addition, the figures for the AC50 (in experiment [5]; on Mu-type opioid receptor) were above 30 µM and 17 µM, respectively.
As for `CN1C(=O)CN=C(c2ccccc2F)c2cc([N+](=O)[O-])ccc21` [FLUNITRAZEPAM], the AC50 in [1] was above 10 µM; in [2], above 30 µM; in experiment [3], above 10 µM; at D(1A) dopamine receptor, above 10 µM; on Estrogen receptor it was above 30 µM; in experiment [6], above 10 µM. For the same molecule, the AC50 (in [5]; at Mu-type opioid receptor) was above 10 µM each time.
For `CC(=O)[C@@]1(O)CC[C@H]2[C@@H]3C[C@H](C)C4=CC(=O)C=C[C@]4(C)[C@@]3(F)[C@@H](O)C[C@@]21C` [FLUOROMETHOLONE], the AC50 was above 10 µM in experiment [1]; above 10 µM in [2]; above 10 µM in [3]; above 10 µM in experiment [4]; above 10 µM on D(1A) dopamine receptor; above 30 µM on Estrogen receptor. Moreover, the AC50 (in [5]; at Mu-type opioid receptor) was above 30 µM each time.
Regarding `CN1C2CCCC1CC(NC(=O)c1nn(C)c3ccccc13)C2` (stereo not drawn) [GRANISETRON], the AC50 was above 10 µM in experiment [1]; above 30 µM in [2]; above 10 µM in experiment [3]; above 30 µM in experiment [4]; above 10 µM on D(1A) dopamine receptor; above 30 µM at Estrogen receptor. The AC50 (in [6]; at Mu-type opioid receptor) was above 10 µM throughout.
For `CC1Cc2ccccc2N1NC(=O)c1ccc(Cl)c(S(N)(=O)=O)c1` (stereo not drawn) [INDAPAMIDE], the AC50 is above 10 µM in experiment [1]; above 30 µM in experiment [2]; above 10 µM in [3]; above 30 µM in experiment [4]; above 10 µM on D(1A) dopamine receptor; above 30 µM at Estrogen receptor. Further, the AC50 (in experiment [5]; on Mu-type opioid receptor) was above 30 µM throughout.
For `CC(=O)N1CCN(c2ccc(OCC3COC(Cn4ccnc4)(c4ccc(Cl)cc4Cl)O3)cc2)CC1` (stereo not drawn) [KETOCONAZOLE], the AC50 (in experiment [1]; in experiment [2]; in [3]; in experiment [4]; at D(1A) dopamine receptor; on Estrogen receptor) was above 10 µM in each case. Besides, the AC50 (in experiment [5]; on Mu-type opioid receptor) was above 30 µM each time.
In the case of `CN1CCC(=C2c3ccccc3CC(=O)c3sccc32)CC1` [KETOTIFEN], the AC50 is 6.45 µM in experiment [1]; above 10 µM in experiment [2]; above 10 µM in experiment [3]; above 10 µM in experiment [4]; above 10 µM on D(1A) dopamine receptor; above 10 µM at Estrogen receptor. The AC50 in experiment [6] was above 10 µM; at Mu-type opioid receptor, above 30 µM.
Turning to `Nc1cc(N2CCCCC2)nc(N)[n+]1[O-]` [MINOXIDIL], the AC50 in experiment [1] was above 10 µM; in experiment [2] it was above 30 µM; in experiment [3] it was above 10 µM; in experiment [4], above 30 µM; at D(1A) dopamine receptor it was above 30 µM; on Estrogen receptor, above 30 µM. The AC50 (in experiment [5]; at Mu-type opioid receptor) was above 30 µM in each case.
Turning to `CC(C)(C)NCC(O)COc1cccc2c1CC(O)C(O)C2` (stereo not drawn) [NADOLOL], the AC50 (in experiment [1]; in experiment [2]; in [3]; in [4]; at D(1A) dopamine receptor; at Estrogen receptor) was above 10 µM each time. The AC50 (in experiment [5]; on Mu-type opioid receptor) was above 30 µM each time.
